# No end group written: not given here.
# System: A. thaliana seedlings
# Assay: Seedling growth inhibition (fresh weight)
# Format: in vivo, Arabidopsis thaliana
# Conditions: mock mean = 1
# Method: Four-day-old seedlings growing on MS plates were transferred individually into separate wells of transparent 48-well tissue culture plates (Greiner Bio-One) containing 500 μL of liquid MS media with/without elicitor addition. The plates were then transferred back to the growth conditions for an additional 10 days before seedlings were blot-dried and weighed.
sequence,measurement,setting,value
ETPPSRSRRGGGG [SCOOP1],"Seedling fresh weight (Fig3C), relative to mock","Col-0, 1 μM, replicate 1",0.767
same,"Seedling fresh weight (Fig3C), relative to mock","Col-0, 1 μM, replicate 2",0.7214
same,"Seedling fresh weight (Fig3C), relative to mock","Col-0, 1 μM, replicate 3",0.5418
same,"Seedling fresh weight (Fig3C), relative to mock","Col-0, 1 μM, replicate 4",0.6909
same,"Seedling fresh weight (Fig3C), relative to mock","Col-0, 1 μM, replicate 5",0.3379
same,"Seedling fresh weight (Fig3C), relative to mock","Col-0, 1 μM, replicate 6",0.5266
same,"Seedling fresh weight (Fig3C), relative to mock","Col-0, 1 μM, replicate 7",0.5662
same,"Seedling fresh weight (Fig3C), relative to mock","Col-0, 1 μM, replicate 8",0.6453
same,"Seedling fresh weight (Fig3C), relative to mock","Col-0, 1 μM, replicate 9",0.5753
same,"Seedling fresh weight (Fig3C), relative to mock","Col-0, 1 μM, replicate 10",0.5996
same,"Seedling fresh weight (Fig3C), relative to mock","Col-0, 1 μM, replicate 11",0.6118
same,"Seedling fresh weight (Fig3C), relative to mock","Col-0, 1 μM, replicate 12",0.4961
same,"Seedling fresh weight (Fig3C), relative to mock","Col-0, 10 μM, replicate 1",0.2426
same,"Seedling fresh weight (Fig3C), relative to mock","Col-0, 10 μM, replicate 2",0.2002
same,"Seedling fresh weight (Fig3C), relative to mock","Col-0, 10 μM, replicate 3",0.1668
same,"Seedling fresh weight (Fig3C), relative to mock","Col-0, 10 μM, replicate 4",0.1698
same,"Seedling fresh weight (Fig3C), relative to mock","Col-0, 10 μM, replicate 5",0.06065
same,"Seedling fresh weight (Fig3C), relative to mock","Col-0, 10 μM, replicate 6",0.1729
same,"Seedling fresh weight (Fig3C), relative to mock","Col-0, 10 μM, replicate 7",0.1759
same,"Seedling fresh weight (Fig3C), relative to mock","Col-0, 10 μM, replicate 8",0.2305
same,"Seedling fresh weight (Fig3C), relative to mock","Col-0, 10 μM, replicate 9",0.2092
same,"Seedling fresh weight (Fig3C), relative to mock","Col-0, 10 μM, replicate 10",0.1607
same,"Seedling fresh weight (Fig3C), relative to mock","Col-0, 10 μM, replicate 11",0.2244
same,"Seedling fresh weight (Fig3C), relative to mock","Col-0, 10 μM, replicate 12",0.2032
same,"Seedling fresh weight (Fig3C), relative to mock","mik2-1, 1 μM, replicate 1",1.15
same,"Seedling fresh weight (Fig3C), relative to mock","mik2-1, 1 μM, replicate 2",1.076
same,"Seedling fresh weight (Fig3C), relative to mock","mik2-1, 1 μM, replicate 3",1.026
same,"Seedling fresh weight (Fig3C), relative to mock","mik2-1, 1 μM, replicate 4",1.019
same,"Seedling fresh weight (Fig3C), relative to mock","mik2-1, 1 μM, replicate 5",1.076
same,"Seedling fresh weight (Fig3C), relative to mock","mik2-1, 1 μM, replicate 6",0.9888
same,"Seedling fresh weight (Fig3C), relative to mock","mik2-1, 1 μM, replicate 7",1.049
same,"Seedling fresh weight (Fig3C), relative to mock","mik2-1, 1 μM, replicate 8",1.026
same,"Seedling fresh weight (Fig3C), relative to mock","mik2-1, 1 μM, replicate 9",0.9619
same,"Seedling fresh weight (Fig3C), relative to mock","mik2-1, 1 μM, replicate 10",0.9215
same,"Seedling fresh weight (Fig3C), relative to mock","mik2-1, 1 μM, replicate 11",0.9619
same,"Seedling fresh weight (Fig3C), relative to mock","mik2-1, 1 μM, replicate 12",0.9922
same,"Seedling fresh weight (Fig3C), relative to mock","mik2-1, 10 μM, replicate 1",1.089
same,"Seedling fresh weight (Fig3C), relative to mock","mik2-1, 10 μM, replicate 2",0.9298
same,"Seedling fresh weight (Fig3C), relative to mock","mik2-1, 10 μM, replicate 3",0.9231
same,"Seedling fresh weight (Fig3C), relative to mock","mik2-1, 10 μM, replicate 4",0.9738
same,"Seedling fresh weight (Fig3C), relative to mock","mik2-1, 10 μM, replicate 5",0.9332
same,"Seedling fresh weight (Fig3C), relative to mock","mik2-1, 10 μM, replicate 6",0.9028
same,"Seedling fresh weight (Fig3C), relative to mock","mik2-1, 10 μM, replicate 7",1.008
same,"Seedling fresh weight (Fig3C), relative to mock","mik2-1, 10 μM, replicate 8",0.9704
same,"Seedling fresh weight (Fig3C), relative to mock","mik2-1, 10 μM, replicate 9",1.085
same,"Seedling fresh weight (Fig3C), relative to mock","mik2-1, 10 μM, replicate 10",1.031
same,"Seedling fresh weight (Fig3C), relative to mock","mik2-1, 10 μM, replicate 11",0.9569
same,"Seedling fresh weight (Fig3C), relative to mock","mik2-1, 10 μM, replicate 12",0.967
FTGPSGSGHGGGR [SCOOP10],"Seedling fresh weight (Fig3C), relative to mock","Col-0, 1 μM, replicate 1",1.053
same,"Seedling fresh weight (Fig3C), relative to mock","Col-0, 1 μM, replicate 2",0.7731
same,"Seedling fresh weight (Fig3C), relative to mock","Col-0, 1 μM, replicate 3",0.8401
same,"Seedling fresh weight (Fig3C), relative to mock","Col-0, 1 μM, replicate 4",1.102
same,"Seedling fresh weight (Fig3C), relative to mock","Col-0, 1 μM, replicate 5",0.9923
same,"Seedling fresh weight (Fig3C), relative to mock","Col-0, 1 μM, replicate 6",0.9101
same,"Seedling fresh weight (Fig3C), relative to mock","Col-0, 1 μM, replicate 7",0.9071
same,"Seedling fresh weight (Fig3C), relative to mock","Col-0, 1 μM, replicate 8",0.8705
same,"Seedling fresh weight (Fig3C), relative to mock","Col-0, 1 μM, replicate 9",0.8462
same,"Seedling fresh weight (Fig3C), relative to mock","Col-0, 1 μM, replicate 10",0.7792
same,"Seedling fresh weight (Fig3C), relative to mock","Col-0, 1 μM, replicate 11",0.9497
same,"Seedling fresh weight (Fig3C), relative to mock","Col-0, 1 μM, replicate 12",0.9679
same,"Seedling fresh weight (Fig3C), relative to mock","Col-0, 10 μM, replicate 1",0.6611
same,"Seedling fresh weight (Fig3C), relative to mock","Col-0, 10 μM, replicate 2",0.655
same,"Seedling fresh weight (Fig3C), relative to mock","Col-0, 10 μM, replicate 3",0.649
same,"Seedling fresh weight (Fig3C), relative to mock","Col-0, 10 μM, replicate 4",0.4731
same,"Seedling fresh weight (Fig3C), relative to mock","Col-0, 10 μM, replicate 5",0.5034
same,"Seedling fresh weight (Fig3C), relative to mock","Col-0, 10 μM, replicate 6",0.7187
same,"Seedling fresh weight (Fig3C), relative to mock","Col-0, 10 μM, replicate 7",0.652
same,"Seedling fresh weight (Fig3C), relative to mock","Col-0, 10 μM, replicate 8",0.7096
same,"Seedling fresh weight (Fig3C), relative to mock","Col-0, 10 μM, replicate 9",0.5944
same,"Seedling fresh weight (Fig3C), relative to mock","Col-0, 10 μM, replicate 10",0.5519
same,"Seedling fresh weight (Fig3C), relative to mock","Col-0, 10 μM, replicate 11",0.555
same,"Seedling fresh weight (Fig3C), relative to mock","Col-0, 10 μM, replicate 12",0.6884
same,"Seedling fresh weight (Fig3C), relative to mock","mik2-1, 1 μM, replicate 1",0.8644
same,"Seedling fresh weight (Fig3C), relative to mock","mik2-1, 1 μM, replicate 2",1.019
same,"Seedling fresh weight (Fig3C), relative to mock","mik2-1, 1 μM, replicate 3",1.022
same,"Seedling fresh weight (Fig3C), relative to mock","mik2-1, 1 μM, replicate 4",0.7702
same,"Seedling fresh weight (Fig3C), relative to mock","mik2-1, 1 μM, replicate 5",0.8139
same,"Seedling fresh weight (Fig3C), relative to mock","mik2-1, 1 μM, replicate 6",0.8307
same,"Seedling fresh weight (Fig3C), relative to mock","mik2-1, 1 μM, replicate 7",0.9619
same,"Seedling fresh weight (Fig3C), relative to mock","mik2-1, 1 μM, replicate 8",1.049
same,"Seedling fresh weight (Fig3C), relative to mock","mik2-1, 1 μM, replicate 9",1.086
same,"Seedling fresh weight (Fig3C), relative to mock","mik2-1, 1 μM, replicate 10",1.002
same,"Seedling fresh weight (Fig3C), relative to mock","mik2-1, 1 μM, replicate 11",1.026
same,"Seedling fresh weight (Fig3C), relative to mock","mik2-1, 1 μM, replicate 12",1.123
same,"Seedling fresh weight (Fig3C), relative to mock","mik2-1, 10 μM, replicate 1",0.8284
same,"Seedling fresh weight (Fig3C), relative to mock","mik2-1, 10 μM, replicate 2",1.096
same,"Seedling fresh weight (Fig3C), relative to mock","mik2-1, 10 μM, replicate 3",0.9366
same,"Seedling fresh weight (Fig3C), relative to mock","mik2-1, 10 μM, replicate 4",0.8791
same,"Seedling fresh weight (Fig3C), relative to mock","mik2-1, 10 μM, replicate 5",0.9096
same,"Seedling fresh weight (Fig3C), relative to mock","mik2-1, 10 μM, replicate 6",0.8453
same,"Seedling fresh weight (Fig3C), relative to mock","mik2-1, 10 μM, replicate 7",0.967
same,"Seedling fresh weight (Fig3C), relative to mock","mik2-1, 10 μM, replicate 8",0.94
same,"Seedling fresh weight (Fig3C), relative to mock","mik2-1, 10 μM, replicate 9",0.9806
same,"Seedling fresh weight (Fig3C), relative to mock","mik2-1, 10 μM, replicate 10",0.896
same,"Seedling fresh weight (Fig3C), relative to mock","mik2-1, 10 μM, replicate 11",1.031
same,"Seedling fresh weight (Fig3C), relative to mock","mik2-1, 10 μM, replicate 12",1.096

# From PMC7846792, “Perception of a divergent family of phytocytokines by the Arabidopsis receptor kinase MIK2” (Nature Communications, 2021)
